From ChEMBL document CHEMBL3507680, “University of Dundee, Gates Library screen for HepG2 cell viability”

Test: Human HepG2 cell viability assay in 384 well format
Assay type: toxicity, cell-based
Design: dose 125 nL, time 70.5 hour; concentration not given beside the values
Details: HepG2 cells, read-out: Inhibition

| SMILES | cytotoxicity at 70.5 h |
| --- | --- |
| O=C(NCCN1CCOCC1)N1CCN(c2ccccc2)CC1 | -10.1% |
| Cc1cc(C)c(S(=O)(=O)Nc2c(C)noc2C)cc1C(=O)O | -2.9% |
| O=C(Cn1cccc2oc(=O)nc1-2)NCC1Cc2ccccc2O1 (configuration not stated) | -5.36% |
| O=C(N1CCN(c2ccccc2O)CC1)C1(O)Cc2ccccc2C1 | 0.667% |
| CC(=O)c1ccc(C(=O)NCc2ccnc(N(C)C)n2)cc1 | 5.65% |
| Fc1cccnc1N1CCC(NCc2cccc3cn[nH]c23)C1 (configuration not stated) | 3.51% |
| Brc1ccc(C2(NCc3noc(C4CC4)n3)CCC2)cc1 | 2.53% |
| CCC1CCC(N(Cc2cc(=O)n(C)c(=O)n2C)C2CC2)CC1 (configuration not stated) | -5.27% |
| CC(C)N1CCCC(N2CCOC3(CCCC3)C2)C1=O (configuration not stated) | -7.02% |
| CC(C)N1CCC(N2CCOC3(CCCC3)C2)C1=O (configuration not stated) | -6.53% |
| O=C(c1ccc(SC(F)(F)F)cc1)N1CCOCC1c1ncon1 (configuration not stated) | -5.57% |
| CC(CCc1ccccc1F)C(=O)NS(=O)(=O)N(C)C(C)C (configuration not stated) | -12.3% |
| CC1CCN(CCCNC(=O)C2CCCCC2)CC1 | -5.79% |
| CN(C1CCCCC1)S(=O)(=O)NC1CCCN(c2ncccn2)C1 (configuration not stated) | -8.05% |
| CC(SCC(=O)NCCC#N)c1ccc(Cl)cc1 (configuration not stated) | -18.4% |
| O=C1CC(N(C(=O)c2ccc(Oc3ccccc3)cc2)C2CC2)C(=O)N1 (configuration not stated) | -4.82% |
| O=C(c1cnn(-c2ccccc2)c1)N1CCN(c2cnccn2)CC1 | -15.3% |
| CCS(=O)(=O)Cc1ccn(-c2cccc(F)c2)n1 | -3.75% |
| COc1ccc(C(=O)N(C2CC2)C2CC(=O)NC2=O)cc1 (configuration not stated) | -2.33% |
| CN(C)C(=O)CCS(=O)(=O)Cc1ccn(-c2cccc(F)c2)n1 | 4.33% |
| CC(C)c1nc(C2CCCN(C(=O)CN(C)S(C)(=O)=O)C2)no1 (configuration not stated) | 5.74% |
| CCn1nc(C)c(CNC(=O)NCC(C)(O)c2ccsc2)c1C (configuration not stated) | -8.94% |
| Cn1ncc(C(=O)OCC2CCN(c3ccccc3)C2)c1C(F)F (configuration not stated) | -3.5% |
| CC(C)NC(=O)CCNC(=O)Nc1cnn(-c2ccccc2F)c1 | -0.437% |

| SMILES | cytotoxicity at 70.5 h |
| --- | --- |
| O=C(Nc1cnn(-c2ccccc2Cl)c1)N[C@@H]1C=C[C@H](CO)C1 | -5.42% |
| CC1CN(S(=O)(=O)c2ccc(F)cc2)c2cccnc2O1 (configuration not stated) | 1.22% |
| Cc1ccc(S(=O)(=O)N2CC(C)Oc3ncccc32)c(F)c1 (configuration not stated) | -7.65% |
| CC(C)(C(=O)NCCC(=O)O)c1cccc(Br)c1 | -12.3% |
| COC(=O)C(O)C1CCN(CCc2ccncc2)CC1 (configuration not stated) | 9.73% |
| COC(=O)C(O)C1CCN(CCc2ccccn2)CC1 (configuration not stated) | -1.57% |
| COC1CCN(CCNC(=O)C2CCCCC2)CC1 | -7.3% |
| CCOC(=O)C1CCN(C(=O)CN2CCCC2c2ccccc2C)CC1 (configuration not stated) | -10.7% |
| CCOC(=O)C1CCN(C(=O)CN2CCCC2c2cc(C)no2)CC1 (configuration not stated) | -17.8% |
| COC(=O)C(O)C1CCN(CCc2ccc(C)cc2)CC1 (configuration not stated) | 9.49% |
| CCS(=O)(=O)CC(=O)N1CCCC(c2noc(C(C)C)n2)C1 (configuration not stated) | 8.9% |
| CCC(NC(=O)CN(C)Cc1ccc(C)o1)c1ccc(C)cc1 (configuration not stated) | -10.3% |
| O=C(CCCc1ccccn1)N1CCC(n2cccc2)CC1 | -1.32% |
| COCCOCCNC(=O)N1CCN(c2ccccc2C#N)CC1 | -2.61% |
| CC(C)c1nc(C2CCCN(c3ncccn3)C2)no1 (configuration not stated) | -10.3% |
| O=C(NCc1ccccn1)N1CC=C(c2ccccc2)CC1 | -16.2% |
| O=C(NCC(O)c1ccc(F)cc1F)c1ccccc1F (configuration not stated) | -12.6% |
| CN(C)CCOc1ccc(CNC(=O)c2cccc(Cl)c2Cl)cc1 | 8.38% |
| Cn1cnc(S(=O)(=O)Nc2cc(C(N)=O)ccc2Cl)c1 | -8.58% |
| COc1c(CNCc2ccccc2CO)c(C)nn1C | -5.09% |
| CCCNC(=O)CN1CCC(NCc2c(C)nn(C)c2OC)CC1 | -0.725% |
| O=C(NCc1ccccc1CO)Nc1ccc2c(c1)CCC2 | -1.72% |
| CNC(=O)c1cccc(CCNS(C)(=O)=O)c1 | -2.35% |
